PubChem BioAssay (NCI)
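96-well plates; 48 h exposure; 5 concentrations. Endpoints by linear interpolation between flanking doses. Not reached: highest tested concentration assigned. At the TGI there is no net growth.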

How the values were obtained:
Assay in all cases: DTP human tumour cell line panel, 48 h
SR leukemia = system: SR leukemia
HOP-18 NSCLC = system: HOP-18 NSCLC
SK-OV-3 ovarian = system: SK-OV-3 ovarian
UO-31 renal = system: UO-31 renal
DLD-1 colon = system: DLD-1 colon
SK-MEL-5 melanoma = system: SK-MEL-5 melanoma
HCT-15 colon = system: HCT-15 colon
A549 NSCLC = system: A549 NSCLC
NCI-H460 lung = system: NCI-H460 lung
UACC-257 melanoma = system: UACC-257 melanoma
SNB-78 CNS = system: SNB-78 CNS
SF-539 CNS = system: SF-539 CNS
OVCAR-8 ovarian = system: OVCAR-8 ovarian
A498 renal = system: A498 renal
HCC-2998 colon = system: HCC-2998 colon
IGROV1 ovarian = system: IGROV1 ovarian
SNB-19 CNS = system: SNB-19 CNS
NCI-H226 lung = system: NCI-H226 lung
UACC-62 melanoma = system: UACC-62 melanoma
HCT-116 colon = system: HCT-116 colon
K-562 leukemia = system: K-562 leukemia
EKVX NSCLC = system: EKVX NSCLC
TK-10 renal = system: TK-10 renal
NCI-H522 lung = system: NCI-H522 lung
SK-MEL-2 melanoma = system: SK-MEL-2 melanoma
RPMI-8226 leukemia = system: RPMI-8226 leukemia
786-0 renal = system: 786-0 renal
HL-60(TB) leukemia = system: HL-60(TB) leukemia
CAKI-1 renal = system: CAKI-1 renal
RXF-631 renal = system: RXF-631 renal
MALME-3M melanoma = system: MALME-3M melanoma
DMS 273 small cell lung = system: DMS 273 small cell lung
OVCAR-3 ovarian = system: OVCAR-3 ovarian
KM12 colon = system: KM12 colon
MOLT-4 leukemia = system: MOLT-4 leukemia
HOP-62 NSCLC = system: HOP-62 NSCLC
M19-MEL melanoma = system: M19-MEL melanoma
LXFL 529 NSCLC = system: LXFL 529 NSCLC
KM20L2 colon = system: KM20L2 colon
RXF 393 renal = system: RXF 393 renal
M14 melanoma = system: M14 melanoma
CCRF-CEM leukemia = system: CCRF-CEM leukemia
SW-620 colon = system: SW-620 colon
U251 CNS = system: U251 CNS
ACHN renal = system: ACHN renal
COLO 205 colon = system: COLO 205 colon
SK-MEL-28 melanoma = system: SK-MEL-28 melanoma
DMS 114 small cell lung = system: DMS 114 small cell lung
SF-268 CNS = system: SF-268 CNS
OVCAR-4 ovarian = system: OVCAR-4 ovarian
SN12C renal = system: SN12C renal
SNB-75 CNS = system: SNB-75 CNS
HOP-92 NSCLC = system: HOP-92 NSCLC
HT29 colon = system: HT29 colon
LOX IMVI melanoma = system: LOX IMVI melanoma
NCI-H23 lung = system: NCI-H23 lung
SF-295 CNS = system: SF-295 CNS
OVCAR-5 ovarian = system: OVCAR-5 ovarian

Measured: TGI

O=C(Nc1cccc2c1C(=O)c1c(NC(=O)c3ccccc3)ccc(Nc3cccc4c3C(=O)c3ccccc3C4=O)c1C2=O)c1ccccc1
> 100 µM: SR leukemia | HOP-18 NSCLC | SK-OV-3 ovarian | UO-31 renal | DLD-1 colon | SK-MEL-5 melanoma | HCT-15 colon | A549 NSCLC | NCI-H460 lung | UACC-257 melanoma | SNB-78 CNS | SF-539 CNS | OVCAR-8 ovarian | A498 renal | HCC-2998 colon | IGROV1 ovarian | SNB-19 CNS | NCI-H226 lung | UACC-62 melanoma | HCT-116 colon | K-562 leukemia | EKVX NSCLC | TK-10 renal | NCI-H522 lung | SK-MEL-2 melanoma | RPMI-8226 leukemia | 786-0 renal | HL-60(TB) leukemia | CAKI-1 renal | RXF-631 renal | MALME-3M melanoma | DMS 273 small cell lung | OVCAR-3 ovarian | KM12 colon | MOLT-4 leukemia | HOP-62 NSCLC | M19-MEL melanoma | LXFL 529 NSCLC | KM20L2 colon | RXF 393 renal | M14 melanoma | CCRF-CEM leukemia | SW-620 colon | U251 CNS | ACHN renal | COLO 205 colon | SK-MEL-28 melanoma | DMS 114 small cell lung | SF-268 CNS | OVCAR-4 ovarian | SN12C renal | SNB-75 CNS

CCOC(=O)C(=O)Nc1nc2c(OCC)cccc2s1
> 100 µM: HOP-18 NSCLC | SK-OV-3 ovarian | UO-31 renal | DLD-1 colon | SK-MEL-5 melanoma | HCT-15 colon | A549 NSCLC | NCI-H460 lung | UACC-257 melanoma | SNB-78 CNS | SF-539 CNS | OVCAR-8 ovarian | HOP-92 NSCLC | A498 renal | HCC-2998 colon | IGROV1 ovarian | SNB-19 CNS | NCI-H226 lung | UACC-62 melanoma | HCT-116 colon | K-562 leukemia | EKVX NSCLC | TK-10 renal | NCI-H522 lung | SK-MEL-2 melanoma | RPMI-8226 leukemia | 786-0 renal | HL-60(TB) leukemia | HT29 colon | CAKI-1 renal | RXF-631 renal | MALME-3M melanoma | LOX IMVI melanoma | NCI-H23 lung | DMS 273 small cell lung | OVCAR-3 ovarian | KM12 colon | MOLT-4 leukemia | SF-295 CNS | HOP-62 NSCLC | M19-MEL melanoma | LXFL 529 NSCLC | KM20L2 colon | RXF 393 renal | M14 melanoma | SW-620 colon | U251 CNS | ACHN renal | COLO 205 colon | SK-MEL-28 melanoma | DMS 114 small cell lung | OVCAR-5 ovarian | SF-268 CNS | OVCAR-4 ovarian | SN12C renal | SNB-75 CNS
